Assay [1] concerns the target T1, gephyrin and α5 subunit interaction (Mus musculus, UniProt Q8BUV3).
T1 construct: from tissue; host or cells: hippocampus of adult mice
T1 sequence (Q8BUV3 1-769): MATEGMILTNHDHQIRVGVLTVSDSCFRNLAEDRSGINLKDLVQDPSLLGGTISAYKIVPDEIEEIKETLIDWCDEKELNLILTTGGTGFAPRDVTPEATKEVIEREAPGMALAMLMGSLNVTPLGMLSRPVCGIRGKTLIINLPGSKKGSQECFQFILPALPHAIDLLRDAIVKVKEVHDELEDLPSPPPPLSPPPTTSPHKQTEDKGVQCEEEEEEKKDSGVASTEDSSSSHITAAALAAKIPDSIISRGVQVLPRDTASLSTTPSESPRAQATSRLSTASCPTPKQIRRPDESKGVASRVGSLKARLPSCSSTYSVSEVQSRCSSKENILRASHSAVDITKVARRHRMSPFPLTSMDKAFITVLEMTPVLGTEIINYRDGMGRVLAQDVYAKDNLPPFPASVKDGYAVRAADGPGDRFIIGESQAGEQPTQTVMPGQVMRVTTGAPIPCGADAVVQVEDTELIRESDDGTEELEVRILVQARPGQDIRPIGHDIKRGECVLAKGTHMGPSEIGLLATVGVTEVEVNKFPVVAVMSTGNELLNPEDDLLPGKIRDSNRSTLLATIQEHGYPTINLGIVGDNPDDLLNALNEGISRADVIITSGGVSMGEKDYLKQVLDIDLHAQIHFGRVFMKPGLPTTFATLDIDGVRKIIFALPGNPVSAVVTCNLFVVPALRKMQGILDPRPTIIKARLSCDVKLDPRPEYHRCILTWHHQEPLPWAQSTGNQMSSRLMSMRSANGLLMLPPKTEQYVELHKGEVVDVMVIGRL
The assay can be described thus: Co-IP and WB of gephyrin and α5 subunit interaction. It counts as binding. The conditions noted are these: immunoprecipitates from Example 1, hippocampal tissue. How it is done: For the immunoprecipitation experiment, the tissue lysate containing […] protein (in 250 μl) was incubated with 20 μM (20 μl) of either the inhibitory peptide (SEQ ID NO:1) or scramble peptide (SEQ ID NO:5) without TAT sequence. One hour following the incubation, the antibodies (2-4 μg) against either α5 subunit (cat #sc—31417, Santa Cruz Biotechnology, Inc., 10410 Finnell St. Dallas, TX, 75220, USA) or radixin (cat #ab91312, Abcam Inc., c/o 913860, PO Box 4090 Stn A, Toronto, ON M5W 0E9), or 4 μg of non-specific IgG protein (cat #sc—2028, Santa Cruz Biotechnology, Inc., 10410 Finnell St. Dallas, TX, 75220, USA), were added to the lysate solution. After gently shaking overnight at 4° C., the immune complexes were precipitated with protein A/G plus-agarose beads (Santa Cruz Biotechnology, Inc., 10410 Finnell St. Dallas, TX, 75220, USA). Forty microliters of the A/G plus agarose beads were added to the immune complex solution and shaking gently for 2 h at 4° C. After spin with the microcentrifuge (Eppendorf Mini-Spin Plus, Marshall Scientific, 424 Route 125, Brentwood, NH 03833, USA), the immunoprecipitates were washed four times with ice-cold PBS, then resuspended in 2× Laemmli sample loading buffer containing 5% […], and boiled for 5 min. These samples were subjected to Western blot experiment. […]

Assay [2] relates to etomidate-induced memory deficits in mice. Description: Novel object recognition task, treatment paradigm. Particulars: peptide given the day after etomidate, 4 hrs before behavioral testing. It counts as in vivo, mouse. How it is done: In the present study, mice were handled two times a day, 5 min each before start of behavioral experiments. Object recognition was assessed in a circle opaque chamber with the diameter of 38.5 cm in a regular lit room. Each mouse was habituated to the chamber for 5 min since day 3. During the training phase, the mouse was allowed to explore two identical objects for 5 min. The mouse was then returned to its home cage for a retention period of 1 h. The mouse was reintroduced to the training context and presented with one familiar object and one novel object for 5 min. Movement and interaction with the objects was recorded with a video camera that was mounted above the chamber. The exploratory behavior and mouse activity was analyzed blindly by a person with a good training and the software EthoVision, XT v11.5 provided by the Noldus Information Tech Inc., (Leesburg VA, USA). Exploratory behavior was defined as sniffing, licking, or touching the object while facing the object. Memory was assessed by measuring the novelty preference ratio (i.e., the ratio of time spent exploring the novel object to the time spent exploring both objects). […] Total interaction time with both objects was compared between groups to determine whether the treatments affected locomotor activity or exploration during the testing phase. […]

Consider NYFTKRGWAWDGKKAL [inhibitory peptide], for which, in assay [1], the “gephyrin and α5 subunit interaction” value is “did not interfere”. Further, the “memory deficits in etomidate-treated mice (NOR, treatment)” value in assay [2] is given as “reversed”.

The record behind these values is patent US12054562B2, “Cell-permeable inhibitory agent and methods of use thereof in treatment of cognitive and mood disorders” (priority 2015, dated 2024).
